Assay results reported in patent US6617358B1, “Anticonvulsant and central nervous system-depressing bis(fluorophenyl)alkylamides and their uses” (NPS Pharmaceuticals, Inc., priority 1997, dated 2003).

Tested on: flexor reflex in normal anesthetized rats
Test: Flexor reflex in normal anesthetized rats (FIG. 3)
Assay type: in vivo, rat
Details: in comparison to baclofen, FIG. 3 legend only, values not given
From the text: Baclofen, diazepam (Valium), and tizanidine are effective on different parameters of spasticity (EMG recordings, H-reflex, the H/M ratio, mono- and polysynaptic reflexes, clonus, hyperreflexia) in these models. The flexor reflex is a polysynaptic response elicited by stimulation of the bottom of the foot and models the withdrawal reflex.

## NC(=O)CC(c1cccc(F)c1)c1cccc(F)c1 [Compound 1, 3,3-bis(3-fluorophenyl)propanamide]
  reduction in the flexor reflex: reduction in the flexor reflex
